Test results taken from the COVID Moonshot data (paper PMC7615835).
pIC50: −log10 of the molar value. “And” between values parts separate entries of the source, which are not always exact repeats. Identical values can stand only once.

Molecular target: SARS-CoV-2 Main Protease (SARS-CoV-2) (UniProt P0DTD1)

Row | Compound | pIC50
1 | COc1cccc2ncc(NC(=O)Cc3cccc(Cl)c3)n12 | < 4.00
2 | O=C(NCCc1ccccc1)[C@H]1CN(C(=O)CCl)CCN1S(=O)(=O)c1ccsc1 (stereo in doubt) | 5.61
3 | CN(CCC#N)S(=O)(=O)N1Cc2ccc(Cl)cc2C2(CCN(c3cncc4ccccc34)C2=O)C1 (stereo not given) | 6.21
4 | Cc1ccncc1NC(=O)Cc1cc(Cl)cc(-c2ccc(C3(C)CCO3)cc2)c1 (stereo not given) | 5.05
5 | COc1ccccc1OCCNC(=O)c1cc(=O)[nH]c2cccc(C)c12 | 4.97
6 | Cc1ccncc1NC(=O)CCc1cccc(Cl)c1 | < 4.00
7 | Clc1cccc2c1OCCC2Nc1ncccn1 (stereo not given) | < 4.00
8 | O=C(Cc1cccc(Cl)c1)Nc1cccnc1 | 4.27
9 | CC(C)(C)c1ccc(N(C(=O)c2ccc(Cl)o2)C(C(=O)NCCc2cccc(F)c2)c2cccnc2)cc1 (stereo not given) | 6.50
10 | N#Cc1cccc(NC(=O)[C@@H]2CN(C(=O)CCl)CCN2S(=O)(=O)c2ccsc2)c1 (stereo in doubt) | 6.38
11 | O=C(Cc1cccc(Cl)c1)Nc1n[nH]c2ccccc12 | < 4.00
12 | O=C(Cn1ccc(=O)[nH]c1=O)OCc1ccc(-c2ccccc2)cc1 | < 4.00
13 | O=C(Cc1cc(Cl)cc(Nc2ccccc2Sc2ccccc2)c1)Nc1cncc2ccccc12 | 5.61
14 | Nc1nn(C(=O)C2CCOc3ccc(Cl)cc32)c2cc(F)ccc12 (stereo not given) | < 4.00
15 | CC(C)(C)c1ccc(N(C(=O)c2cocn2)C(C(=O)N2CCC(c3cccc(F)c3)CC2)c2cccnc2)cc1 (stereo not given) | 5.02
16 | CSCCNC(=O)C(c1cccnc1)N(C(=O)c1cocn1)c1ccc(C(C)(C)C)cc1 (stereo not given) | 5.61
17 | C=CC(=O)N(c1ccc(C(C)(C)C)cc1)C(C(=O)NCC)c1cccnc1 (stereo not given) | 4.34
18 | Cc1cc(C(=O)N2Cc3ccc(Cl)cc3C3(CCN(c4cncc5ccccc45)C3=O)C2)n(C)n1 (stereo not given) | 6.33
19 | CC(C)(C)c1ccc(N(C(=O)c2cocn2)C(C(=O)NCCc2cnc[nH]2)c2cccnc2)cc1 (stereo not given) | 4.84
20 | CN(C)C(=O)CN1Cc2ccc(Cl)cc2C(C(=O)Nc2cncc3ccccc23)C1 (stereo not given) | 6.05
21 | O=C(NCCc1cccc(F)c1)C(c1cccnc1)N(C(=O)c1cocn1)[C@H]1C[C@H](Oc2ccccc2)C1 (stereo not given in full) | < 4.00
22 | N#CC1(CS(=O)(=O)N2Cc3ccc(Cl)cc3C(C(=O)Nc3cncc4cccc(Cl)c34)C2)CC1 (stereo not given) | 6.59
23 | C=CC(=O)NCC(=O)N(CCN1CCOCC1)Cc1sccc1Br | < 4.00
24 | Cc1ccc(S(=O)(=O)NCCNC(=O)N2CCN(S(=O)(=O)N3CCCC3)CC2)cc1 | < 4.00

Row | Compound | pIC50
25 | COc1ccc(Nc2cc(Cl)cc(CC(=O)Nc3cncc4ccccc34)c2)cc1C(F)(F)F | 5.72
26 | O=C(COC(=O)C1(c2ccccc2)CCC1)c1c[nH]c2ccccc12 | < 4.00
27 | CC(C)(C)c1ccc(N(C(=O)c2cc(C3(O)COC3)on2)C(C(=O)NCCc2cccc(F)c2)c2cccnc2)cc1 (stereo not given) | 4.58
28 | O=C(Cc1cccc(Cl)c1)Nc1cncc2ccc(OCCN3CCCC3)cc12 | 5.95
29 | C1=C(c2c[nH]c3ccccc23)CCN(Cc2ccno2)C1 | < 4.00
30 | O=C(NCCc1cccc(F)c1)C(c1cccnc1)N(C(=O)c1cocn1)C1CCCOC1 (stereo not given) | < 4.00
31 | CNC(=O)CN1CC(C(=O)Nc2cncc3cccc(C)c23)c2cc(Cl)ccc2C1=O (stereo not given) | 6.44
32 | Cc1nocc1C(=O)N1Cc2ccc(Cl)cc2C(C(=O)Nc2cncc3ccccc23)C1 (stereo not given) | 6.77
33 | CC(C)(C)c1ccc(N(C(=O)c2cnco2)C(C(=O)NCCc2cccc(F)c2)c2cccnc2)cc1 (stereo not given) | 5.32
34 | COc1ccc2c(N)nn(C(=O)Cc3cccc(Cl)c3)c2c1 | < 4.00
35 | COc1cc(N(C(=O)c2cnc[nH]2)C(C(=O)NCCc2cccc(F)c2)c2cccnc2)ccc1S(=O)(=O)N(C)C (stereo not given) | < 4.00
36 | Cc1ccnc(NC(=O)C2CCOc3ccc(Cl)cc32)c1N (stereo not given) | 4.15
37 | Cn1c(=O)oc2cc(S(=O)(=O)Nc3ccc4ncccc4c3)ccc21 | < 4.00
38 | CC(C)(C)c1ccc(N(C(=O)c2nc(=O)[nH][nH]2)C(C(=O)NCCc2cccc(F)c2)c2cccnc2)cc1 (stereo not given) | < 4.00
39 | O=C(Cc1cc(Cl)cc(OC2CC(=O)N2)c1)Nc1cc(=O)[nH]c2ccccc12 (stereo not given) | 4.08
40 | Cn1ncc2c(=O)[nH]c(NNC(=O)c3cccn4nccc34)nc21 | < 4.00
41 | CNC(=O)CN1CC(C)(C(=O)Nc2cncc3cc(Cl)ccc23)c2cc(Cl)ccc2S1(=O)=O (stereo not given) | 6.41
42 | CC(C)(C)c1ccc(N(C(=O)c2cocn2)C(C(=O)NCCc2cccc(F)c2)c2cnccn2)cc1 (stereo not given) | 5.92
43 | O=C(Cc1cc(Cl)cc(NCCc2ccc(C(F)(F)F)cc2)c1)Nc1cncc2ccccc12 | 5.25
44 | O=C1NC2(COc3ccc(Cl)cc32)C(=O)N1c1cncc2ccc(F)cc12 (stereo not given) | 5.86
45 | CN1CC(C#N)(CS(=O)(=O)N2Cc3ccc(Cl)cc3C(C(=O)Nc3cncc4ccccc34)C2)C1 (stereo not given) | 6.82
46 | CC1(C(=O)Nc2cncc3c2CCCC3)CNS(=O)(=O)c2ccc(Cl)cc21 (stereo not given) | < 4.00
47 | C#CCCCC(=O)N[C@@H](CC)C(=O)N[C@H](C(=O)N[C@@H](CC(C)C)C(=O)N[C@@H](CCC(=O)N(C)C)C(=O)COC(=O)c1c(C)cccc1C)C(C)(C)C (stereo in doubt) | 5.24 and 5.23
48 | O=C(Nc1cncc2ccccc12)C1CCOc2c(OCc3ccccc3)cc(Cl)cc21 (stereo not given) | 4.44

Row | Compound | pIC50
49 | COc1cc(OC)cc(-c2nc(-c3c(C)nc4sccn34)no2)c1 | < 4.00
50 | COc1ccc(C(Cc2cnn(C)c2)C(=O)Nc2c[nH]c3ccccc23)cc1 (stereo not given) | < 4.00
51 | CN1CCN(c2cc(Cl)cc(CC(=O)Nc3cncc4ccccc34)c2)[C@H](c2ccccc2)C1 (stereo in doubt) | 5.74
52 | Cc1c(C(=O)CCl)c2ccccn2c1C(=O)c1ccc(F)cc1 | 6.14
53 | CC(CNc1ccc2nnnn2n1)c1nc2ccccc2s1 (stereo not given) | < 4.00
54 | Cn1ncc2cc(C(=O)NNc3nc4cccnc4s3)cnc21 | < 4.00
55 | O=C1CC(C(=O)Nc2cncc3ccccc23)c2cc(Br)ccc2N1 (stereo not given) | 5.95
56 | Cn1cc(-c2cc(C(=O)N(c3ccc(C(C)(C)C)cc3)C(C(=O)NCCc3cccc(F)c3)c3cccnc3)on2)cn1 (stereo not given) | < 4.00
57 | C[C@H](Nc1cc(Cl)cc(CC(=O)Nc2cncc3ccccc23)c1)c1ccc(Br)cc1 (stereo in doubt) | 5.42
58 | CC(C)(C)c1ccc(N(C(=O)c2ncc[nH]2)C(C(=O)NCCc2cccc(F)c2)c2cccnc2)cc1 (stereo not given) | 5.28
59 | CNC(=O)CN1CC2(CCN(c3cncc4cc(Cl)ccc34)C2=O)c2cc(Cl)ccc2C1=O (stereo not given) | 6.35
60 | O=C(Cc1cc(Cl)cc(N2CCN(C(=O)C3CC3)CC2)c1)Nc1cncc2ccccc12 | 5.70
61 | N#CCC1(CS(=O)(=O)N2Cc3ccc(Cl)cc3C(C(=O)Nc3cncc4ccccc34)C2)CC1 (stereo not given) | 6.89
62 | CC(C)(C)OC(=O)NCCNC(=O)C(c1cccnc1)N(C(=O)c1cocn1)c1ccc(C(C)(C)C)cc1 (stereo not given) | 5.20
63 | CNC(=O)CN1C[C@H](C(=O)Nc2cncc3cccc(Cl)c23)c2cc(Cl)ccc2C1=O (stereo in doubt) | 7.02
64 | O=C(Cc1cc(Cl)cc(NCCc2ccc(Cl)c(Cl)c2)c1)Nc1cncc2ccccc12 | 5.27
65 | CC(=O)Nc1ccc2c(NC(=O)Cc3cccc(Cl)c3)cncc2c1 | 6.41
66 | O=C(Cc1cc(Cl)cc(Br)c1)Nc1cncc2ccccc12 | < 5.00
67 | O=C1CCc2cc(C(=O)N3CCC(C4CCNC4)CC3)ccc2N1 (stereo not given) | < 4.00
68 | CC(=O)N(CC(=O)Nc1ccc(F)c(Cl)c1)c1cccc(Cl)c1 | < 4.00
69 | CC(C)(C)c1ccc(N(C(=O)CCC#N)C(C(=O)NCCc2cccc(F)c2)c2cccnc2)cc1 (stereo not given) | 5.42
70 | CC(C)(O)c1cccc(N(C(=O)c2cocn2)C(C(=O)NCCc2cccc(F)c2)c2cccnc2)c1 (stereo not given) | < 4.00
